Values of other authors, collected in US6174531A, “Methods of preparation of bioginkgo” (priority 1998, dated 2001).
Like-named read-outs stand apart in the source and are kept apart here.

Legend:
[1] = tested on: PAF platelet membrane receptor; settings: in vitro, literature
[2] = rats, literature
[3] = humans, literature

CC1C(=O)OC2C(O)C34C5CC(C(C)(C)C)C36C(OC(=O)C6O)OC4(C(=O)O5)C12O (stereo not drawn) [ginkgolide B]
specificity of inhibition of PAF binding to its platelet receptors [1]: highly specific | IC50 ([1]; read-out: IC50, inhibition of PAF binding to its platelet receptors): ~100 nM | half-life compared with ginkgolide A [2]: longer half-life | half-life compared with ginkgolide A [3]: longer half-life

CC1C(=O)OC2C(O)C34C5OC(=O)C3(OC3OC(=O)C(O)C34C(C(C)(C)C)C5O)C12O (stereo not drawn) [ginkgolide C]
specificity of inhibition of PAF binding to its platelet receptors [1]: highly specific

C[C@@H]1C(=O)O[C@H]2C[C@@]34[C@H]5C[C@@H](C(C)(C)C)[C@]36[C@@H](OC(=O)[C@@H]6O)O[C@@]4(C(=O)O5)[C@]21O [ginkgolide A]
specificity of inhibition of PAF binding to its platelet receptors [1]: highly specific
